Values joined by “and” are separate entries in the source; they are usually repeats but may differ in a detail not shown here. Identical values can stand only once. Toxic doses and inconclusive results are not listed. No stated cut-off is given here; in the data, active means T/C of 150% or more; inactive means T/C below 125%.
System: L1210 leukemia ip in BDF1 mice, survival T/C
Assay: NCI In Vivo Anticancer Drug Screen. Data for tumor model L1210 Leukemia (intraperitoneal) in B6D2F1 (BDF1) mice
Settings: endpoint: mean survival time, higher = longer survival
Procedure, shortened: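 Value reflects the ratio of survival in compound-treated mice to survival in vehicle-treated controls, with both groups carrying the same transplanted tumor.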

[1] = dose: 50.0 mg/kg/injection, schedule: Q01DX001 (ip), vehicle: saline
[2] = dose: 100.0 mg/kg/injection, schedule: Q01DX001 (ip), vehicle: saline
[3] = dose: 100.0 mg/kg/injection, schedule: Q04DX002 (ip), vehicle: Klucel (hydroxypropylcellulose) (HPC)
[4] = dose: 200.0 mg/kg/injection, schedule: Q04DX002 (ip), vehicle: Klucel (hydroxypropylcellulose) (HPC)
[5] = dose: 400.0 mg/kg/injection, schedule: Q04DX002 (ip), vehicle: Klucel (hydroxypropylcellulose) (HPC)
[6] = dose: 200.0 mg/kg/injection, schedule: Q01DX001 (ip), vehicle: saline
[7] = dose: 400.0 mg/kg/injection, schedule: Q01DX001 (ip), vehicle: saline
[8] = dose: 100.0 mg/kg/injection, schedule: Q04DX003 (ip), vehicle: saline with Tween-80
[9] = dose: 100.0 mg/kg/injection, schedule: Q04DX003 (ip), vehicle: Klucel (hydroxypropylcellulose) (HPC)
[10] = dose: 200.0 mg/kg/injection, schedule: Q04DX003 (ip), vehicle: Klucel (hydroxypropylcellulose) (HPC)
[11] = dose: 400.0 mg/kg/injection, schedule: Q04DX003 (ip), vehicle: Klucel (hydroxypropylcellulose) (HPC)
[12] = dose: 100.0 mg/kg/injection, schedule: Q04DX002 (ip), vehicle: saline

Measured: T/C

COc1ccc(OC)c2c1C=CCC=C2
inactive: dose: 50.0 mg/kg/injection, schedule: Q01DX009 (ip), vehicle: saline with Tween-80 95 % of control | dose: 100.0 mg/kg/injection, schedule: Q01DX009 (ip), vehicle: saline with Tween-80 88 % of control | dose: 100.0 mg/kg/injection, schedule: Q04DX003 (ip), vehicle: acetone 117 % of control | dose: 200.0 mg/kg/injection, schedule: Q01DX009 (ip), vehicle: saline with Tween-80 102 % of control | dose: 200.0 mg/kg/injection, schedule: Q04DX003 (ip), vehicle: acetone 94 % of control

C[S+]1CCCCC1
inactive: [1] 96 % of control | [2] 100 % of control

Cc1ccc(C)c(NC(=O)Nc2ccc(Cl)cc2)c1
inactive: dose: 100.0 mg/kg/injection, schedule: Q01DX009 (ip), vehicle: gum acacia 96 % of control | dose: 100.0 mg/kg/injection, schedule: Q04DX003 (ip), vehicle: gum acacia 98 % of control | dose: 200.0 mg/kg/injection, schedule: Q01DX009 (ip), vehicle: gum acacia 100 % of control | dose: 200.0 mg/kg/injection, schedule: Q04DX003 (ip), vehicle: gum acacia 90 % of control | dose: 400.0 mg/kg/injection, schedule: Q01DX009 (ip), vehicle: gum acacia 96 % of control | dose: 400.0 mg/kg/injection, schedule: Q04DX003 (ip), vehicle: gum acacia 95 % of control

Cc1ccc(C(=O)Cc2ccccc2)cc1
inactive: [3] 94 % of control | [4] 98 % of control | [5] 110 % of control

COC(=O)CC(C(=O)OC)C(=O)OC
inactive: dose: 75.0 mg/kg/injection, schedule: Q01DX001 (ip), vehicle: Klucel (hydroxypropylcellulose) (HPC) 105 % of control | dose: 75.0 mg/kg/injection, schedule: Q01DX009 (ip), vehicle: Klucel (hydroxypropylcellulose) (HPC) 97 % of control | dose: 150.0 mg/kg/injection, schedule: Q01DX001 (ip), vehicle: Klucel (hydroxypropylcellulose) (HPC) 103 % of control | dose: 150.0 mg/kg/injection, schedule: Q01DX009 (ip), vehicle: Klucel (hydroxypropylcellulose) (HPC) 105 % of control | dose: 300.0 mg/kg/injection, schedule: Q01DX001 (ip), vehicle: Klucel (hydroxypropylcellulose) (HPC) 90 % of control | dose: 300.0 mg/kg/injection, schedule: Q01DX009 (ip), vehicle: Klucel (hydroxypropylcellulose) (HPC) 105 % of control

C=C1CC(C)(C)C(c2ccccc2)OC1=O (stereo unspecified)
inactive: dose: 100.0 mg/kg/injection, schedule: Q01DX001 (ip), vehicle: saline with Tween-80 107 % of control | dose: 200.0 mg/kg/injection, schedule: Q01DX001 (ip), vehicle: saline with Tween-80 102 % of control

O=[N+]([O-])C12CC3CC(CC(C3)C1)C2
inactive: dose: 100.0 mg/kg/injection, schedule: Q01DX001 (sc), vehicle: olive oil, sesame oil, peanut oil 114 % of control | dose: 200.0 mg/kg/injection, schedule: Q01DX001 (sc), vehicle: olive oil, sesame oil, peanut oil 108 % of control | dose: 400.0 mg/kg/injection, schedule: Q01DX001 (sc), vehicle: olive oil, sesame oil, peanut oil 93 % of control

O=[N+]([O-])C1C=NCCN=C1
inactive: dose: 100.0 mg/kg/injection, schedule: Q04DX013 (ip), vehicle: carboxymethylcellulose (CMC) 96 % of control | dose: 200.0 mg/kg/injection, schedule: Q04DX013 (ip), vehicle: carboxymethylcellulose (CMC) 94 % of control | dose: 400.0 mg/kg/injection, schedule: Q04DX013 (ip), vehicle: carboxymethylcellulose (CMC) 94 % of control

CC(=O)C(C)=P(c1ccccc1)(c1ccccc1)c1ccccc1
inactive: dose: 25.0 mg/kg/injection, schedule: Q01DX009 (ip), vehicle: saline 101 % of control | dose: 50.0 mg/kg/injection, schedule: Q01DX009 (ip), vehicle: saline 102 % of control | dose: 100.0 mg/kg/injection, schedule: Q01DX009 (ip), vehicle: saline 96 % of control | dose: 100.0 mg/kg/injection, schedule: Q04DX003 (ip), vehicle: saline 98 % of control | dose: 200.0 mg/kg/injection, schedule: Q04DX003 (ip), vehicle: saline 88 % of control | dose: 400.0 mg/kg/injection, schedule: Q04DX003 (ip), vehicle: saline 88 % of control

O=[N+]([O-])c1cc(Br)c(N=Nc2ccc(O)cc2)c(Br)c1
inactive: [1] 92 % of control | [2] 114 % of control | [6] 97 % of control | [7] 92 % of control

OCCOC1CCCCC=C1Br (stereo unspecified)
inactive: [8] 113 % of control | dose: 200.0 mg/kg/injection, schedule: Q04DX003 (ip), vehicle: saline with Tween-80 110 % of control | dose: 400.0 mg/kg/injection, schedule: Q04DX003 (ip), vehicle: saline with Tween-80 102 % of control

CCC(=O)Oc1c(CC=C(C)C)c(OC(=O)CC)c2ccccc2c1OC(=O)CC
inactive: dose: 100.0 mg/kg/injection, schedule: Q01DX009 (ip), vehicle: Klucel (hydroxypropylcellulose) (HPC) 93 % of control | [9] 90 % of control | dose: 200.0 mg/kg/injection, schedule: Q01DX009 (ip), vehicle: Klucel (hydroxypropylcellulose) (HPC) 93 % of control | [10] 94 % of control | dose: 400.0 mg/kg/injection, schedule: Q01DX009 (ip), vehicle: Klucel (hydroxypropylcellulose) (HPC) 88 % of control | [11] 96 % of control

CN(C)S(=O)(=O)c1ccc(NC(=O)OC2CCCCCC2)cc1
inactive: [2] 91 % of control | [6] 94 % of control | [7] 91 % of control

CCOc1ccc(NC2CNC(=O)NC2=O)cc1 (stereo unspecified)
inactive: dose: 200.0 mg/kg/injection, schedule: Q01DX Z (ip), vehicle: methylcellulose (MC) 91 % of control

COC(=O)c1cc(NC(=O)CC(=O)c2cccc(N)c2)cc(C(=O)OC)c1
inactive: [9] 104 % of control | [10] 96 % of control | [11] 94 % of control

COc1cccc(N=CC(=O)c2ccc(C)cc2)c1
inactive: dose: 75.0 mg/kg/injection, schedule: Q04DX003 (ip), vehicle: Klucel (hydroxypropylcellulose) (HPC) 95 % of control | dose: 150.0 mg/kg/injection, schedule: Q04DX003 (ip), vehicle: Klucel (hydroxypropylcellulose) (HPC) 89 % of control

O=C(OC(CCN1CCCCC1)c1ccccc1)c1ccccc1 (stereo unspecified)
inactive: [8] 100 % of control

COC1=CCC(OC)=C(C)C1
inactive: dose: 150.0 mg/kg/injection, schedule: Q01DX009 (ip), vehicle: saline 95 % of control | dose: 225.0 mg/kg/injection, schedule: Q01DX009 (ip), vehicle: saline 94 % of control

Cc1cccc(SC(=O)SC(C)CN)c1 (stereo unspecified)
inactive: dose: 25.0 mg/kg/injection, schedule: Q04DX002 (ip), vehicle: saline 99 % of control | dose: 50.0 mg/kg/injection, schedule: Q04DX002 (ip), vehicle: saline 105 % of control | [12] 94 % of control and 99 % of control

CC(=O)c1ccc(Oc2ccccc2)cc1
inactive: [3] 104 % of control | [4] 93 % of control | [5] 110 % of control

c1ccc(Nc2ncn[nH]2)cc1
inactive: dose: 100.0 mg/kg/injection, schedule: Q04DX002 (ip), vehicle: gum acacia 106 % of control | dose: 200.0 mg/kg/injection, schedule: Q04DX002 (ip), vehicle: gum acacia 103 % of control | dose: 400.0 mg/kg/injection, schedule: Q04DX002 (ip), vehicle: gum acacia 117 % of control

Oc1ccc(Br)cc1C=NC1CCCCC1
inactive: dose: 100.0 mg/kg/injection, schedule: Q04DX002 (ip), vehicle: other 90 % of control | dose: 200.0 mg/kg/injection, schedule: Q04DX002 (ip), vehicle: other 96 % of control | dose: 400.0 mg/kg/injection, schedule: Q04DX002 (ip), vehicle: other 90 % of control

Cc1nccn1-c1ccccc1N=Cc1ccc(N(CCCl)CCCl)cc1Cl
inactive: [12] 102 % of control | dose: 200.0 mg/kg/injection, schedule: Q04DX002 (ip), vehicle: saline 102 % of control | dose: 400.0 mg/kg/injection, schedule: Q04DX002 (ip), vehicle: saline 98 % of control

CCS(=O)(=O)c1ncc2cnccn12
inactive: dose: 50.0 mg/kg/injection, schedule: Q01DX009 (ip), vehicle: water 98 % of control | dose: 100.0 mg/kg/injection, schedule: Q01DX009 (ip), vehicle: water 98 % of control and 101 % of control | dose: 100.0 mg/kg/injection, schedule: Q04DX003 (ip), vehicle: water 93 % of control | dose: 200.0 mg/kg/injection, schedule: Q01DX009 (ip), vehicle: water 105 % of control and 110 % of control | dose: 200.0 mg/kg/injection, schedule: Q04DX003 (ip), vehicle: water 95 % of control

Source: PubChem BioAssay AID248 (DTP/NCI, 2004)
